# Source: patent US9994536B2, “Compounds and methods of treating neurological disorders” (TORREY PINES INSTITUTE FOR MOLECULAR STUDIES, priority 2014, dated 2018)
# Key:
# [1] = tested on: fibroblasts derived directly from AD patients; assay: MTT cytotoxicity assay, AD fibroblasts; assay type: cell-based; details: 24 h exposure, human AD fibroblasts
# From the text: (4). Toxicity is another crucial limitation for successful drug development as evidenced by recent failure of γ-secretase inhibitors at the clinical trials due to cytotoxicity (Cole, S L and Vassar, R, 2007, Mol. Neurodeg. 2, 22-47; Doody R S, et al. 2013. N. Eng. J. Med. 369, 341-350). Therefore we measured cytotoxicity by very sensitive MTT assay as described previously (Hayes, C D., et al. 2013, BMC Medicine. 26, 11.81; 23; Hayes, C D., et al., 2012, PLoS One 7, e45841) in human primary neurons obtained from a commercial source (cat #1520, ScienCell, Carlsbad, Calif., USA) and fibroblasts derived directly from AD patients (cat #AG06263C, Coriell Institute Cell repository supported by NINDS, NIH). […] We directly used human neurons for toxicity studies so as to reduce the chances of future failure at a later stage due to toxicity.
# [2] = tested on: sAPPα; assay: sAPPα ELISA, NT2 cells stably expressing APP751; assay type: cell-based, human; details: 24 h
# Protocol: (§1) (5). To confirm the effect of THPI-244 on sAPPα levels in a neuronal cell line and by a tertiary assay, we exposed human Neuron-committed Teratocarcinoma cell line (NT2) stably expressing human APP751 to different concentrations of THPI-244 for 24 h and compared with that of Bryostatin, a classical activator of PKC known to stimulate sAPPα release. […] Levels of sAPPα were measured by ELISA using commercially available kit (cat #27734, IBL-America, Minneapolis, Minn., USA). […] Similar biphasic effect of Bryostatin was confirmed for Aβ42 also, measured again in NT2 stable cells by ELISA (cat #KHB3441, Life Technologies, Grand Island, N.Y., USA). Consistent with sAPPα, THPI-244 decreased Aβ42 levels dose-dependently starting from 50 nM (28%, p<0.05) to 2000 nM (64%, p<0.001) (n=4 independent experiments) (FIG. 1.7). Thus THPI-244 increased non-amyloidogenic processing of APP in NT2 cells.
# [3] = tested on: Aβ42; assay: Aβ42 ELISA, NT2 stable cells; assay type: cell-based, human
# Protocol: as §1
# [4] = biological target: T1, TrkA (Mus musculus, UniProt Q3UFB7); assay: Mouse brain lysate immunoblot, TrkA; assay type: in vivo; details: 100 mg/kg i.p. for 5 days
# T1 construct: from tissue; host or cells: mouse brain lysate
# T1 sequence (Q3UFB7 34-799): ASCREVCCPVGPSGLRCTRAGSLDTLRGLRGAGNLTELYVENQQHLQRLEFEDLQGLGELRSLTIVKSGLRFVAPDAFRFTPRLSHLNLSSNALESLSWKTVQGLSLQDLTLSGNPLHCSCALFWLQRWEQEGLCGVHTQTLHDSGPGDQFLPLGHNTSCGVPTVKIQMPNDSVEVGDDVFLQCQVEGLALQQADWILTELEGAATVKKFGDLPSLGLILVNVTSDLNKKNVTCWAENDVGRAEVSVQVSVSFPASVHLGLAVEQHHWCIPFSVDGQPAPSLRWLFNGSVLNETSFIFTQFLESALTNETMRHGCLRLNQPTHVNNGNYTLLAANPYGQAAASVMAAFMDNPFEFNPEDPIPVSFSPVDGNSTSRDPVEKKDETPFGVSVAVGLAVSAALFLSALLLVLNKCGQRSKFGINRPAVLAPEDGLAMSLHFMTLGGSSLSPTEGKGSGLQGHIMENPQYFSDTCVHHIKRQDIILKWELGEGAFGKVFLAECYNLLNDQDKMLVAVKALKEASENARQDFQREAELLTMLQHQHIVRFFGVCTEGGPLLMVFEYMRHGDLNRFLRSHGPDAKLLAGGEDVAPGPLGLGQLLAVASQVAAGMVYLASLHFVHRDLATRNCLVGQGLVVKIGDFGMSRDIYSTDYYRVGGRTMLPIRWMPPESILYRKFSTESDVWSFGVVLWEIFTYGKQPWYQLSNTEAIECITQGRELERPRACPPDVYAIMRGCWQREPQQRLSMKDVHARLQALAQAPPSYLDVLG
# Protocol: FIGS. 9.2A and B illustrate that THPI-244 increases TrkA and sAPPα in the mouse brain. FIG. 9.2A illustrates that THPI-244 was administered to mice by i.p. injections at 100 mg/kg body weight for 5 days and the brain lysates were subjected to immunoblots. Specific antibodies were used to detect TrkA and sAPPα. […] Data are mean±SEM, n=3*, p<0.05, ***, p<0.001.
# [5] = tested on: PI3Kα; assay: Signal transduction analysis, PI3Kα; assay type: cell-based, human; details: NT2 cells
# From the text: (§2) (2). THPI-244 increases sAPPα by a novel mechanism of upregulating TrkA, a neurotrophic receptor. Therefore, in addition to increasing neuroprotective sAPPα and decreasing toxic Aβ, THPI-244 mediated increased TrkA protein levels are expected to provide neurotrophic support. Following the validation of the effect of THPI-244 in increasing sAPPα levels in CHO cells, NT2 cells, AD fibroblasts and human primary neurons, we were interested in identifying the molecular target of THPI-244 for unraveling the molecular mechanism by which it increases sAPPα which in turn can predict toxicity profile and whether to pursue long-term studies. Increased protein levels of both native and phosphorylated form of TrkA in NT2 cells and mouse brains by THPI-244 validated TrkA as the target.
# [6] = tested on: P75NTR; assay: Signal transduction analysis, P75NTR; assay type: cell-based, human; details: NT2 cells
# From the text: as §2
# [7] = biological target: TrkA (Homo sapiens, UniProt P04629); assay: Table of THPI-244 analogs: TrkA increase
# Chain of TrkA (Homo sapiens, UniProt P04629) (P04629 33-796, species assumed): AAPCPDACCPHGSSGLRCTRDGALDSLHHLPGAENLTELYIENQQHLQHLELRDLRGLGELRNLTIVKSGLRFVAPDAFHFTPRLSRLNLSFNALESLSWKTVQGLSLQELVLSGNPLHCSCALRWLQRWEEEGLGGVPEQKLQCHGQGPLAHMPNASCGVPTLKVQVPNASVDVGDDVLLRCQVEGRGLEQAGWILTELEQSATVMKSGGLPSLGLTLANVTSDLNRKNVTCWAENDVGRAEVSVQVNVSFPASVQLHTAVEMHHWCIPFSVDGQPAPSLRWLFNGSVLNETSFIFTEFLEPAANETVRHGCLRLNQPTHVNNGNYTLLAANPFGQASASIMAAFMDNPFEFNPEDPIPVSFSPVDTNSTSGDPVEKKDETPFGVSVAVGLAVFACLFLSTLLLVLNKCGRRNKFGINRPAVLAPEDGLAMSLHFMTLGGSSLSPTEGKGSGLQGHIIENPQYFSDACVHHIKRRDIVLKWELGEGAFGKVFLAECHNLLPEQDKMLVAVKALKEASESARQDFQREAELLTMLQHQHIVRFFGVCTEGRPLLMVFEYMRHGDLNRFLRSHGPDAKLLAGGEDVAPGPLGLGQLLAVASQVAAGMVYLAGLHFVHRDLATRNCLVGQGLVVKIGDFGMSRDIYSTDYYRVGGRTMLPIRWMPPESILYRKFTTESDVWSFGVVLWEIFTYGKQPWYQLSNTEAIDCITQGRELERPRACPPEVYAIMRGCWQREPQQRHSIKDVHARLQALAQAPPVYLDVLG
smiles,measurement,setting,value
O=C(Cc1ccccc1)N[C@H](CNc1nc(CN2CCN(C(=O)Cc3ccccc3)CC2)cs1)c1ccccc1 [THPI-244],lowest concentration with significant cytotoxicity,[1],50 µM
same,lowest concentration with significant increase of sAPPα,[2],50 nM
same,lowest concentration with significant decrease of Aβ42,[3],50 nM
same,increase of TrkA in brain,[4],78%
same,effect on PI3Kα pathway,[5],activation of PI3Kα
same,effect on P75NTR,[6],did not affect
same,% TrkA ⬆,[7],99%
